This note sets out measurements from US7026309B2, “Fused bicyclic pyridine derivative as tachykinin receptor antagonist” (Kyorin Pharmaceutical Co., Ltd., priority 2002, dated 2006).

In assay [1] the test system is effective bladder capacity. The assay is described as follows: Cystometry test on guinea pigs with cut spinal cord. The format is in vivo. Conditions: guinea pig. From the text:
(2) Cystometry Test on Guinea Pigs
The method used was according to the method proposed by JS. Peterson et al. (Peterson J S. et al., J. Pharmacol. Methods 21(1989): 231), to which minor modifications were made.
Guinea pigs were anesthetized with halothane and the tenth thoracic spinal cord was cut in each animal. Subsequently, both ureters were ligated and were cut on the kidney-side. Polyethylene catheters were inserted into the bladder to provide an injection pathway for physiological saline and a pathway for the measurement of intravesical pressure. Each animal was restricted in a Ballman cage and was left for more than 2 hours. Subsequently, room-temperature saline was injected through the bladder catheter into the bladder at a rate of 6 mL/hr to conduct a cystometry test. Once the effective bladder capacity was stabilized, a test compound was intravenously administered into the jugular vein. The effective bladder capacity is defined as the volume of saline injected from one urination to the next. The effect of each test compound was determined as the increase in the average bladder volume, which was determined based on the average bladder volume measured 30 minutes prior to the administration of the test compound and the average bladder volume measured every 30 minutes after the administration of the test compound.

A further assay has as its target T1, NK1 receptor (Cavia porcellus, UniProt P30547).
T1 construct: from tissue; host or cells: isolated guinea pig ileum
Nature of the assay: Test for NK1 receptor antagonist: substance P concentration-response in isolated guinea pig ileum, Schild analysis. Conditions: substance P as agonist, 10 min pretreatment, method of Schild. The format is cell-based. How it is done:
(1) Test for NK1 Receptor Antagonist
The method used was according to the method proposed by S. Dion et al. (Dion et al., Life Sciences 41(1987): 2269), to which minor modifications were made.
Guinea pigs were stunned by a blow on the head and were exsanguinated from the carotid artery and ilea were isolated. The ileum was mounted in an organ bath containing Tyrode's solution which was maintained at 32° C. and gased with 95% O2 and 5% CO2. The ileum was subjected to a resting tension of 1-gram and allowed to equilibrate for 20 minutes before the experiment was started. As a control, a concentration-response curve for substance P in the absence of any of test compounds was used. The NK1 receptor antagonist activity of each test compound was determined by a concentration-response curve obtained by pretreating at least three concentrations of the test compound for 10 minutes and subsequently applying substance P in a cumulative manner. The Kb values were determined according to the method of Schild and the results are shown in Table 1 (Schild Brit. J. Pharmacol. 14(1959): 48).
The composition of the Tyrode's solution was as follows: NaCl=136.9, KCl=2.7, CaCl2.2H2O=2.5, MgCl2.6H2O=1.0, NaH2PO4.2H2O=0.4, NaHCO3=11.9, glucose=11.1 (mmol/L).

T1 sequence (P30547 whole entry): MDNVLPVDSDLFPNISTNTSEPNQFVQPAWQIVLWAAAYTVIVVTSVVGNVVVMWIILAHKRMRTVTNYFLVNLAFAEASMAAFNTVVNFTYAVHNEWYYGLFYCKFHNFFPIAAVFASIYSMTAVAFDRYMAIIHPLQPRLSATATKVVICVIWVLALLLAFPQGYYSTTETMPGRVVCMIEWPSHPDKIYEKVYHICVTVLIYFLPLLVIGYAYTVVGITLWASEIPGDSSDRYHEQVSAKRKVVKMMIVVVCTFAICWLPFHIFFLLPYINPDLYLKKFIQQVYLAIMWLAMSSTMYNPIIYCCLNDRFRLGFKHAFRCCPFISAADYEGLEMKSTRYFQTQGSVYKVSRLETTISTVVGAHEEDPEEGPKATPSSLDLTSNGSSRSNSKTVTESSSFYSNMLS

One may read the Kb as the equilibrium dissociation constant of an antagonist, usually derived from a functional assay. As to `CC(=O)N1CCN(c2cc(-c3ccccc3C)c3c(n2)OCCCN(Cc2cc(C(F)(F)F)cc(C(F)(F)F)c2)C3=O)CC1` [Example 1, 9-(4-acetylpiperazine-1-yl)-5-[3,5-bis(trifluoromethyl)benzyl]-7-(2-methylphenyl)-6-oxo-2,3,4,5-tetrahydro-6H-pyrido[2,3-b][1,5]oxazocine], the “Increase in bladder capacity (%)” value in assay [1] (0.3 mg/kg i.v.) is given as 32.2%. Moreover, at NK1 receptor, the Kb is 0.0888 nM.

As to `CC(=O)N1CCN(c2cc(-c3ccc(F)cc3)c3c(n2)OCCCN(Cc2cc(C(F)(F)F)cc(C(F)(F)F)c2)C3=O)CC1` [Example 2, 9-(4-acetylpiperazine-1-yl)-5-[3,5-bis(trifluoromethyl)benzyl]-7-(4-fluorophenyl)-6-oxo-2,3,4,5-tetrahydro-6H-pyrido[2,3-b][1,5]oxazocine], the Kb at NK1 receptor stood at 0.0847 nM.

Regarding `CC(=O)N1CCCN(c2cc(-c3ccccc3C)c3c(n2)OCCCN(Cc2cc(C(F)(F)F)cc(C(F)(F)F)c2)C3=O)CC1` [Example 6, 9-(4-acetylhomopiperazine-1-yl)-5-[3,5-bis(trifluoromethyl)benzyl]-7-(2-methylphenyl)-6-oxo-2,3,4,5-tetrahydro-6H-pyrido[2,3-b][1,5]oxazocine], the Kb at NK1 receptor amounted to 0.294 nM.

For the compound `Cc1ccc(-c2c3n(c(=O)c4ncccc24)CC[C@@H](C)CN(Cc2cc(C(F)(F)F)cc(C(F)(F)F)c2)C3=O)cc1` [TAK-637], the “Increase in bladder capacity (%)” value is 12.0% in assay [1] (0.3 mg/kg i.v.), 23.8% in assay [1] (1 mg/kg i.v.) and 20.5% in assay [1] (3 mg/kg i.v.). Also, the Kb on NK1 receptor was 0.269 nM.
